This is an account of results in US7906499B2, “Polycarboxylated porphyrins and use thereof in treatment of metal toxicities” (priority 2005, dated 2011).

One assay has as its target Aβ1-40 (Homo sapiens, UniProt P05067). The experiment in a line: Dissolution / prevention of metal-induced Aβ aggregates (filtration, 6E10 immunodetection). The class given is biochemical. The note with it: "we found", with reference to Atamna, 2004. The protocol:
Aβ1-40 (10 ng in 200 μl) aggregation is induced by incubation (30 min, RT) with ZnCl2 (25 μM in TBS, pH 7.4), CuCl2 (5 μM in TBS, pH 6.8), or acidic conditions (pH 5.5, MES buffered saline). Aggregates are transferred to a 0.2μ nylon membrane by filtration using a 96-well ELIFA apparatus (Pierce). The aggregates are then washed (200 μl/well) with TBS alone, TBS containing 2 μM EDTA (control), or TBS with uroproporphyrin or coproporphyrin at varying concentrations (0.1 μM-1 mM). The membrane is fixed, probed with the anti-Aβ monoclonal antibody 6E10 (Senetek), and developed for exposure to ECL film. Quantification of retained, aggregated Aβ is performed by densitometry, calibrated against known amounts of the peptide.
Because metals, such as Zn++ and Cu+, trigger the pathologic aggregation of Aβ, an important causal factor in Alzheimers disease, we tested the ability of endogenous prophyrins to prevent Aβ aggregation using published methodology. […] The effect of porphyrins on Aβ is likely mediated by their ability to chelate metals. […] Endogenous porphyrins can be used directly, or their synthesis can be triggered in tissue by applying their precursors and/or cofactors, for therapeutic purposes including the treatment and prevention of disorders that involve Aβ aggregation and/or metal toxicity. […]

The nature of assay [1]: Absorption spectroscopy of porphyrin intermediates on addition of metal (metal binding), +Mn. Also noted: key to Cpor 370 nm peak, change after metal addition / Cpor 500 nm peak, change after metal addition / Cpor 538 nm peak, change after metal addition / Cpor 560 nm peak, change after metal addition / Cpor 608 nm peak, change after metal addition / Upor 395 nm peak, change after metal addition / Upor 498 nm peak, change after metal addition / Upor 540 nm peak, change after metal addition / Upor 565 nm peak, change after metal addition / Upor 612 nm peak, change after metal addition: Dis; peak disappeared.; Inc; Peak increased.; Dec; peak decreased.; = indicates no difference from the control.; (a)indicates new peak. From the text: (§1) In the determining step, the individual is identified as subject to or predisposed to a polycarboxylated porphyrin-binding metal toxicity. Polycarboxylated porphyrin-binding metal toxicities include metal toxicity from environmental exposure, and disorders characterized by disturbances in metal ion homeostasis, particularly disorders that result in metal ion accumulation. Examples of such disorders include Wilson's disease, in which copper transport is defective (e.g. Nakayama, 2000); aceruloplasminemia, an iron metabolism disorder (e.g. Miyajima, 2003); and diseases involving metal-facilitated protein aggregation such as zinc, copper, or iron facilitated-aggregation of Aβ in Alzheimer's disease (e.g. Atamna, 2004), and aluminum, copper, iron, cobalt, or manganese facilitated-aggregation of α-synuclein in Parkinson's disease (e.g. Uversky, 2001). Conventional spectroscopy assays (e.g. Beer, 2003) can be used to determine whether a given polycarboxylated porphyrin binds the toxic metal of interest (e.g. Example 2, below). In particular embodiments, the metal is selected from the group consisting of Al^+++, Hg^++, […], Cu^+, Mn^+, and Zn^++.
(§2) We studied the interaction between metals and porphyrin intermediates.

Assay [2] is described as follows: Absorption spectroscopy of porphyrin intermediates on addition of metal (metal binding), +Cu. Also on record: key to Cpor 370 nm peak, change after metal addition / Cpor 500 nm peak, change after metal addition / Cpor 538 nm peak, change after metal addition / Cpor 560 nm peak, change after metal addition / Cpor 608 nm peak, change after metal addition / Upor 395 nm peak, change after metal addition / Upor 498 nm peak, change after metal addition / Upor 540 nm peak, change after metal addition / Upor 565 nm peak, change after metal addition / Upor 612 nm peak, change after metal addition: Dis; peak disappeared.; Inc; Peak increased.; Dec; peak decreased.; = indicates no difference from the control.; (a)indicates new peak.
Description: as §1, §2

The nature of assay [3]: Absorption spectroscopy of porphyrin intermediates on addition of metal (metal binding), +Zn. Also noted: key to Cpor 500 nm peak, change after metal addition / Cpor 538 nm peak, change after metal addition / Cpor 560 nm peak, change after metal addition / Cpor 608 nm peak, change after metal addition / Upor 498 nm peak, change after metal addition / Upor 540 nm peak, change after metal addition / Upor 565 nm peak, change after metal addition / Upor 612 nm peak, change after metal addition: Dis; peak disappeared.; Inc; Peak increased.; Dec; peak decreased.; = indicates no difference from the control.; (a)indicates new peak.
Description: as §1, §2

Values joined by “and” are separate entries in the source; they are usually repeats but may differ in a detail not shown here. Identical values can stand only once.

Chain of Aβ1-40 (P05067 672-711 limits assumed): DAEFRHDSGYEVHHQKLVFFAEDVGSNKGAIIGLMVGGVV

In the case of `C=CC1=C(C)c2cc3[n-]c(cc4[n-]c(cc5nc(cc1n2)C(C)=C5C=C)c(C)c4CCC(=O)O)c(CCC(=O)O)c3C.[Fe+2]` [heme], on Aβ1-40, the “Displacement of metals from aggregated Aβ and disaggregation” value is “displace metals from the aggregated Aβ and disaggregate the complex”.

`O=C(O)CCC1=C(CC(=O)O)c2cc3[nH]c(cc4nc(cc5[nH]c(cc1n2)c(CC(=O)O)c5CCC(=O)O)C(CCC(=O)O)=C4CC(=O)O)c(CC(=O)O)c3CCC(=O)O` [Upor, Uroporphyrin III]: in assay [1], the “New peak after metal addition (marked a)” value is 460a nm and 545a nm and 575a nm; the “Upor 395 nm peak, change after metal addition” value was “Inc”; the “Upor 498 nm peak, change after metal addition” value (shortened to “Upor 498 nm peak, change”) is listed as “Dis”; the “Upor 540 nm peak, change after metal addition” value (“Upor 540 nm peak, change” below) was “Dis”. Also, in assay [1], the “Upor 565 nm peak, change after metal addition” value (from here on “Upor 565 nm peak, change”) was “Dis” and the “Upor 612 nm peak, change after metal addition” value (shortened to “Upor 612 nm peak, change”) is listed as “Dis”. In assay [2], the “New peak after metal addition (marked a)” value is 525a nm; the “Upor 395 nm peak, change after metal addition” value was “Inc”; the “Upor 498 nm peak, change” value is reported as “Dis”; the “Upor 540 nm peak, change” value is “Dis”. In assay [2], the “Upor 565 nm peak, change” value is “Inc” and the “Upor 612 nm peak, change” value is given as “Dis”. In assay [3], the “New peak after metal addition (marked a)” value amounted to 575a nm; the “Upor 498 nm peak, change” value is reported as “Dis”; the “Upor 540 nm peak, change” value is “Inc”; the “Upor 565 nm peak, change” value was “Dis”. For the same compound, in assay [3], the “Upor 612 nm peak, change” value is given as “Dis”. The “Upor 395 nm peak after metal addition (peak position)” value in assay [3] (control peak 395 nm) is reported as 405 nm.

For Coproporphyrin III [Cpor], in assay [1], the “Cpor 370 nm peak, change after metal addition” value is reported as “=”; the “Cpor 500 nm peak, change after metal addition” value (“Cpor 500 nm peak, change” below) is recorded as “=”; the “Cpor 538 nm peak, change after metal addition” value (from here on “Cpor 538 nm peak, change”) is “=”; the “Cpor 560 nm peak, change after metal addition” value (shortened to “Cpor 560 nm peak, change”) is given as “=”. Moreover, the “Cpor 608 nm peak, change after metal addition” value (“Cpor 608 nm peak, change” below) in assay [1] is recorded as “=”. In addition, in assay [2], the “Cpor 370 nm peak, change after metal addition” value was “=”; the “Cpor 500 nm peak, change” value was “=”; the “Cpor 538 nm peak, change” value is reported as “Dec”; the “Cpor 560 nm peak, change” value is “Dec”. Besides, in assay [2], the “Cpor 608 nm peak, change” value is “Dis” and the “New peak after metal addition (marked a)” value is 525a nm. Also, in assay [3], the “Cpor 500 nm peak, change” value is “Dis”; the “Cpor 538 nm peak, change” value is “Inc”; the “Cpor 560 nm peak, change” value is on record as “Inc”; the “Cpor 608 nm peak, change” value was “Dis”. In addition, the “New peak after metal addition (marked a)” value in assay [3] turned out to be 575a nm. Besides, the “Cpor 370 nm peak after metal addition (peak position)” value in assay [3] (control peak 370 nm) came out at 400 nm.
